Experimental data as given in article PMC7681098 (Theranostics, 2021).
Like-named read-outs stand apart in the source and are kept apart here.

Columns and labels:
[1] = target: T1, c-Kit (Homo sapiens, UniProt P10721); assay: Kinase inhibition assay (Reaction Biology); assay type: biochemical
T1 construct: purchased Reaction Biology Corporation (PA, USA)

[2] = target: T2, ERK1 (Homo sapiens, UniProt P27361); assay: Kinase inhibition assay (Reaction Biology); assay type: biochemical
T2 construct: purchased Reaction Biology Corporation (PA, USA)

[3] = target: T3, ERK2/MAPK1 (Homo sapiens, UniProt P28482); assay: Kinase inhibition assay (Reaction Biology); assay type: biochemical
T3 construct: purchased Reaction Biology Corporation (PA, USA)

[4] = target: FLT3 (ITD) (Homo sapiens, UniProt P36888, ITD); assay: biochemical
[5] = system: BaF3 cells with FLT3-D835Y; assay: Cell viability of transformed BaF3 cells; assay type: cell-based, murine; details: Mus musculus, read-out: BaF3 cells with FLT3 mutants IC50 D835Y
Protocol: (§1) Lentivirus packaging and construction of transformed BaF3 cells were performed as described previously. […] Supernatants were collected and used to infect BaF3 cells, and transduced BaF3 cells were selected with puromycin (1 μg/ml) to obtain stably transformed cells.
(§2) The conditional medium (CM) was prepared from the supernatant of HS-5 cell culture for 5 days under normal culture conditions. At the indicated time point, cell viability was evaluated by MTT assay.

[6] = system: BaF3 cells with FLT3-ITD/N676D; assay: Cell viability of transformed BaF3 cells; assay type: cell-based, murine; details: Mus musculus, read-out: BaF3 cells with FLT3 mutants IC50 ITD-N676D
Protocol: as §1, §2

[7] = system: BaF3 cells with FLT3-ITD; assay: Cell viability of transformed BaF3 cells; assay type: cell-based, murine; details: Mus musculus, read-out: BaF3 cells with FLT3 mutants IC50 ITD
Protocol: as §1, §2

[8] = system: MOLM13 cells; assay: Stroma-protecting model: proliferation in HS-5 conditional medium or normal medium; assay type: cell-based; details: Homo sapiens, MOLM-13, 72 h, MTT
Protocol: At the indicated time point, cell viability was evaluated by MTT assay.
(A) Indicated FLT3 mutations were expressed in BaF3 cells respectively. […] The autophosphorylation level of FLT3 was visualized and compared by western blot analysis. […] The CM was prepared from HS-5 cell culture for 4 days under routine culture conditions, clarified by centrifugation, and used immediately. The CM was added to complete medium at a final concentration of 40%. Cell viabilities were measured by MTT assay. Data were shown as mean±SD. […] The FLT3 phosphorylation levels of FLT3, STAT5 and ERK 1/2 were determined by Western blot.
On the other hand, the bone marrow stroma-protecting environment containing a number of cytokines (e.g. FLT3 ligand, stromal derived factor-1, etc) could also decrease the drug efficacy of FLT3 inhibitors by activating FLT3 or its downstream effectors and building cross-talk between leukemic blasts and bone marrow microenvironment, [35].

[9] = PK study in mice; assay type: in vivo, BALB/c mice; details: for MRT last: read-out: MRT(0-t); for MRT inf: read-out: MRT(0-∞); for concentration at 12 h: read-out: plasma concentration 12 h after administration; for half-life: read-out: apparent plasma half-life (t1/2z) (converted)
Protocol: After dosing, blood samples were collected at indicated time points (15 min, 30 min, 45 min, 60 min, 90 min, 2 h, 4 h, 6 h, 8 h, 12 h, 24 h). Blood samples from each group were collected at each time point and the supernatant was collected and used for HPLC/LC-MAS analysis.
Then, plasma levels of LT-171-861 were measured at each indicated time point. […] This inhibition efficacy lasted for 24 h, in accordance with the results of the PK experiment.

[10] = system: bone marrow mononuclear cells (BMMCs); assay: Apoptosis assay in normal bone marrow mononuclear cells; assay type: cell-based, C57BL/6 mice; details: 36 h
Protocol: Blue square and solid line represent intravenous injection administration. […] Mice were sacrificed at indicated time points and then tumor tissues were dissected and lysed. Phosphorylation levels of FLT3, STAT5 and ERK1/2 were measured by western blotting. (C) Bone marrow mononuclear cells (BMMCs) were isolated from healthy C57BL/6 mice. […] Apoptosis assays were conducted after 36-hour incubation. […] 24 h after the last administration, c-Kit^+ cells were evaluated by flow cytometry. […] Data were shown with mean±SD.
Then, we evaluated progenitor cell (c-Kit^+) lineages of bone marrow cells (Figure 4D), spleen or liver weights (Figure S2A), relative body weights (Figure S2B), and parameters of blood routine examination (Figure S2C).

[11] = system: BaF3 cells transfected with FLT3-ITD-N676D and FLT3-ITD-F691L; assay: Subcutaneous xenograft with transfected BaF3 cells; assay type: in vivo, BALB/c nude mice; details: 10 mg/kg every other day for 16 days
Protocol: (§3) Data were shown as mean±SD. […] Data were shown as mean±SD. (C) An engrafted tumor model was used to evaluate in vivo antitumor activity. The NOD/SCID mice were intravenously inoculated with MV4-11 cells. […] Log-rank testing was used to compare survival curves among treatment groups. […] (D) Apoptotic assays in engraft model were evaluated by TUNEL assay and cell proliferative activity was measured by Ki67 assay. Images were acquired at ×40 magnification. (E) BALB/c nude mice were subcutaneously inoculated with MV4-11 cells (5×10^6) and bodyweight of each mouse was recorded every other day. (F) Representative photo of tumors from BALB/c nude mice which were inoculated with MV4-11 cells. (G) BALB/c nude mice were subcutaneously inoculated with BaF3 cells bearing FLT3-ITD-N676D (n=6) and FLT3-ITD-F691L (n=6) respectively. […] (H) BALB/c mice were intravenously inoculated with cells used in (G). […] Log-rank testing was used to compare survival curves among treatment groups. […] (I) Representative photos of spleens dissected from mice in (H) inoculated with BaF3 cells bearing FLT-3-ITD-F691L.
(§4) Cells were injected into the tail vein of BALB/c nude mice and allowed to engraft for 5 days. […] This schedule was repeated for 8 cycles.

[12] = system: BaF3-transfected cells (FLT3-ITD-N676D, FLT3-ITD-F691L); assay: Intravenous implantation of BaF3-transfected cells, survival; assay type: in vivo, BALB/c nude mice; details: 10 mg/kg once every other day, 8 cycles
Protocol: as §3, §4

[13] = female, BALB/c, mouse, plasma, 10 mg/kg, IV
[14] = female, BALB/c, mouse, plasma, po, 10 mg/kg, IG

T1 sequence (P10721 26-976): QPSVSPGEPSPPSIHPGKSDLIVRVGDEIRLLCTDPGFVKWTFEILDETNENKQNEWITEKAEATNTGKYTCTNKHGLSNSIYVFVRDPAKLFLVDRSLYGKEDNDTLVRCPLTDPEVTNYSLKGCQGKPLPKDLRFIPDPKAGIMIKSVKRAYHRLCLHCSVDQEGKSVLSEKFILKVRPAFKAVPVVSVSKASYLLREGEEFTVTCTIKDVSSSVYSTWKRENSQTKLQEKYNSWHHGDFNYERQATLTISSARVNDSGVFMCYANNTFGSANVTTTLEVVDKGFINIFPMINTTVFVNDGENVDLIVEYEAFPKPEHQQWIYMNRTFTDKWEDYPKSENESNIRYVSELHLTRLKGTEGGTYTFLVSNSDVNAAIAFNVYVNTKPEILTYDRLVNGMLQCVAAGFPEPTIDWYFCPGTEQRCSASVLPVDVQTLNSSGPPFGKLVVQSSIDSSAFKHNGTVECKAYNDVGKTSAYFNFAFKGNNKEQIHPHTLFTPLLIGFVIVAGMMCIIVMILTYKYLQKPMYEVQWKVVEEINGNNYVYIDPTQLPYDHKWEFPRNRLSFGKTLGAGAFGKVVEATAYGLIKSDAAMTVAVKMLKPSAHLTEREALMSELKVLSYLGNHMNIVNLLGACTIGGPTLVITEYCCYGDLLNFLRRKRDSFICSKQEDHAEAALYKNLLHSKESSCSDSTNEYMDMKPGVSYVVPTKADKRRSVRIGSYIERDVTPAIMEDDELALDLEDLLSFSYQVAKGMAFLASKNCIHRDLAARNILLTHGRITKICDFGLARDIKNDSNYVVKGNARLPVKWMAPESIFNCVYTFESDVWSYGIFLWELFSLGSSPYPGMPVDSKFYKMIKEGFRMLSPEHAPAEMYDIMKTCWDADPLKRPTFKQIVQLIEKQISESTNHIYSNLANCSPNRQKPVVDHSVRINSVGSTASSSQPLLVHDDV
T2 sequence (P27361 whole entry): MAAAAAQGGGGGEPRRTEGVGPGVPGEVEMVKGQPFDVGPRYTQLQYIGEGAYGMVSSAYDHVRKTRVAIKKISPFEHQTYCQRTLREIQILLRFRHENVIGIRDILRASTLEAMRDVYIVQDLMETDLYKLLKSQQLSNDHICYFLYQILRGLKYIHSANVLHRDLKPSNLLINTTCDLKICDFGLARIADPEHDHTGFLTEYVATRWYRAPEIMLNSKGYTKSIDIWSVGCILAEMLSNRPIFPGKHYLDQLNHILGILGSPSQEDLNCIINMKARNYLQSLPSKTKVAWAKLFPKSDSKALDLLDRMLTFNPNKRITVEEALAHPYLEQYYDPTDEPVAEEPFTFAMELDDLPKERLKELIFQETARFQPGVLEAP
FLT3 (ITD), sequence (P36888 564-993, stated change not applied): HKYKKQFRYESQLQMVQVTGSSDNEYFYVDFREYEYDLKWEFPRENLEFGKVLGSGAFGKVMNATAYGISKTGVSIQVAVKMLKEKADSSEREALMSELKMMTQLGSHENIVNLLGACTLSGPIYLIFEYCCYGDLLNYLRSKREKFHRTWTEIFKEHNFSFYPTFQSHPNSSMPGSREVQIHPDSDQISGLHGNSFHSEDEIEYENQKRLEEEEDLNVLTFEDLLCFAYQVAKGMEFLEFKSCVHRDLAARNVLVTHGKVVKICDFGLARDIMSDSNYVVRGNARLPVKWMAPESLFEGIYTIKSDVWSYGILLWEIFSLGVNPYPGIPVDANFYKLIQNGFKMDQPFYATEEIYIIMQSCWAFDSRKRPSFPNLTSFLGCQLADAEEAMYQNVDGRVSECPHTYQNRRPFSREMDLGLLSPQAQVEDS
T3 sequence (P28482 whole entry): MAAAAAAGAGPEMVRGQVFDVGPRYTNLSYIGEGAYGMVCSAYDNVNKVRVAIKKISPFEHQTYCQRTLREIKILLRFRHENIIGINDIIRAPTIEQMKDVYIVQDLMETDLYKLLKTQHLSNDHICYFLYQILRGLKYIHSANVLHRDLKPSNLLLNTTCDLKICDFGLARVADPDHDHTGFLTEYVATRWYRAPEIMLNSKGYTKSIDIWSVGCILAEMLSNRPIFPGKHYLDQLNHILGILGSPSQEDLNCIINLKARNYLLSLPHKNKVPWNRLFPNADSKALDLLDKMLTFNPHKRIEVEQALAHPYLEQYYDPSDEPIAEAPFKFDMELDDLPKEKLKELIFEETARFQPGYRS

In the case of `CN1CCN(Cc2ccc(NC(=O)c3n[nH]cc3Nc3ncnc4[nH]ccc34)cc2)CC1` [LT-171-861], the IC50 [1] is reported as > 200 nM, the IC50 ([1]; 10 μM ATP, 10-dose IC50 mode) is reported as 1810 nM and the IC50 [2] is reported as > 200 nM. The IC50 ([2]; 10 μM ATP, 10-dose IC50 mode) was 1060 nM, the IC50 ([3]; 10 μM ATP, 10-dose IC50 mode, read-out: IC50 ERK2/MAPK1) was 798 nM and the IC50 ([3]; read-out: IC50 ERK2) was > 200 nM. For the same compound, the IC50 [4] was < 1 nM, the IC50 ([4]; 10 μM ATP, 10-dose IC50 mode) was 0.718 nM and the IC50 [5] was 23.3 nM. The IC50 [6] was 47.5 nM, the IC50 [7] was 4.1 nM and the IC50 ([8]; HS-5 conditional medium (CM) 40%, read-out: IC50 proliferation of MOLM13 cells in CM) was 24.7 nM. For the same compound, the IC50 ([8]; normal medium (NM), read-out: IC50 proliferation of MOLM13 cells in NM) was 19.9 nM, the CLz ([9]; 10 mg/kg, IG) was 314.0953 mL/min/kg and the Vz ([9]; 10 mg/kg, IG) was 100.1863 L/kg. For the same compound, the AUC(0-inf) [9, 13] was 3380 ng·h/mL, the AUC(0-t) [9, 13] was 3310 ng·h/mL and the clearance ([9]; female, BALB/c, mouse, plasma, 10 mg/kg, IV, read-out: CLz (converted)) was 49.3 mL/min/kg. It also gave an MRT last [9, 13] of 1.86 h, an MRT inf [9, 13] of 2.1 h and a Vd ([9]; female, BALB/c, mouse, plasma, 10 mg/kg, IV, read-out: Vz) of 8.61 L/kg. It also gave a Cmax ([9]; female, BALB/c, mouse, plasma, 10 mg/kg, intravenous injection (IV)) of 2170 ng/mL, a Cmax ([9]; female, BALB/c, mouse, plasma, 10 mg/kg, oral administration) of 200 nM and a Cmax ([9]; female, BALB/c, mouse, plasma, 10 mg/kg, oral administration (IG)) of 88 ng/mL. The concentration at 12 h ([9]; female, BALB/c, mouse, plasma, intravenous, 10 mg/kg, i.v) was 50.1 nM, the half-life ([9]; female, BALB/c, mouse, plasma, iv, 10 mg/kg, intravenous (tail) injection (IV)) was 2.02 h and the bioavailability ([9]; female, BALB/c, mouse, plasma, oral versus intravenous at 10 mg/kg) was ~15%. It also gave a concentration at 12 h ([9]; female, BALB/c, mouse, plasma, oral, 10 mg/kg, p.o) of 30 nM, an AUC(0-inf) [9, 14] of 531 ng·h/mL and an AUC(0-t) [9, 14] of 463 ng·h/mL. For the same compound, the MRT last [9, 14] was 4.28 h, the MRT inf [9, 14] was 5.95 h and the Tmax ([9]; female, BALB/c, mouse, plasma, po, 10 mg/kg, oral administration (IG), read-out: Tmax (time to maximum plasma level)) was 1 h. The half-life ([9]; female, BALB/c, mouse, plasma, po, 10 mg/kg, oral administration (IG)) was 3.68 h, the “toxicity in normal BMMCs” value [10] was “hypotoxicity” and the tumor growth [11] was “inhibited tumor growth”. For the same compound, the survival versus vehicle [12] was “significant survival advantage”.
